Results as given in article PMC9468336, “The choanoflagellate pore-forming lectin SaroL-1 punches holes in cancer cells by targeting the tumor-related glycosphingolipid Gb3” (Communications Biology, 2022).
Like-named read-outs stand apart in the source and are kept apart here.

Columns and labels:
SaroL-1 [1] = molecular target: T1, SaroL-1 (Salpingoeca rosetta, UniProt F2UID9); assay: Isothermal titration calorimetry (MicroCal iTC200) at 25 °C in 20 mM Tris/HCl pH 7.5, 100 mM NaCl, ligand titrated into SaroL-1, one-site model with stoichiometry N fixed to 3.; format: binding
T1 construct: gene PTSG_08235; monomeric in solution
Experimental: Isothermal Titration Calorimetry (ITC)
ITC experiments were performed with MicroCaliTC200 (Malvern Panalytical). Experiments were carried out at 25 °C ± 0.1 °C. SaroL-1 and ligands samples were prepared in Buffer A. The ITC cell contained SaroL-1 in a concentration range from 0.05 mM to 0.16 mM. The syringe contained the ligand solutions in a concentration from 10 to 50 mM. 2 μL of ligands solutions were injected into the sample cell at intervals of 120 s while stirring at 750 rpm. Integrated heat effects were analysed by nonlinear regression using one site binding model (MicroCal PEAQ-ITC Analysis software). The experimental data were fitted to a theoretical curve, which gave the dissociation constant (Kd) and the enthalpy of binding (∆H).

[2] = molecular target: T2, hemolytic activity of SaroL-1 on rabbit erythrocytes (Salpingoeca rosetta, UniProt F2UID9); assay: Inhibition of hemolytic activity (IHA) of SaroL-1 by carbohydrates; format: cell-based; settings: for inhibition: SaroL-1 217 nM, read-out: Mean % inhibition of hemolysis
T2 sequence (F2UID9 1-329): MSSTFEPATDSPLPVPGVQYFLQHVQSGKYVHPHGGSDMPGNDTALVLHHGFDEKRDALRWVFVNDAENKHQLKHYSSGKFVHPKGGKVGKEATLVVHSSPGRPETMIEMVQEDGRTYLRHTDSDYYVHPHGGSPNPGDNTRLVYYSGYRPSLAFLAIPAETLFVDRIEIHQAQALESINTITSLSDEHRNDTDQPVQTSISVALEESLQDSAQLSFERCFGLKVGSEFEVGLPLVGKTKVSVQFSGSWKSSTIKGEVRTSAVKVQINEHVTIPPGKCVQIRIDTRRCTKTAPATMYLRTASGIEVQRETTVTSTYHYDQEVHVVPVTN
Experimental: (§1) Both HA and IHA assays were performed in U-shaped 96-well microtiter plates. In both cases, a control negative experiment was performed with Buffer A added to erythrocyte solution (2% final concentration), and the resulting value was subtracted from all data.
(§2) IHA was performed in U-shaped 96-well microtiter plates. […] 4% rabbit erythrocytes were added to the mixture in a 1:1 ratio and incubated for 1–2 h at 37 °C. The samples were centrifuged, 2600 × g for 15 min at RT, and the absorbance of the supernatant was measured at 540 nm by a Tecan reader.

SaroL-1 [3] = molecular target: T1, SaroL-1; assay: Inhibition of SaroL-1 (217 nM) induced hemolysis of rabbit erythrocytes after 1 h pre-incubation of lectin with sugar at RT, then 1-2 h at 37 °C, absorbance of supernatant at 540 nm.; format: cell-based; settings: n = 2
Experimental: Hemolytic assay (HA) and inhibition of hemolytic activity (IHA)
as §1, §2

SaroL-1 [4] = assay: Isothermal titration calorimetry of galactosyl-ligands with SaroL-1; format: binding, Salpingoeca rosetta; settings: ITC

| SMILES | Kd (SaroL-1 [1]) [µM] | inhibition ([2]; sugar 0.003 mM) [%] | inhibition ([2]; sugar 0.006 mM) [%] | inhibition ([2]; sugar 0.0125 mM) [%] | inhibition ([2]; sugar 0.025 mM) [%] | inhibition ([2]; sugar 0.05 mM) [%] | inhibition ([2]; sugar 0.1 mM) [%] | inhibition ([2]; sugar 0.2 mM) [%] | inhibition ([2]; sugar 0.4 mM) [%] | inhibition ([2]; sugar 0.8 mM) [%] | inhibition ([2]; sugar 1.6 mM) [%] | inhibition ([2]; sugar 3.125 mM) [%] | inhibition ([2]; sugar 6.25 mM) [%] | inhibition ([2]; sugar 12.5 mM) [%] | inhibition ([2]; sugar 25 mM) [%] | inhibition ([2]; sugar 50 mM) [%] | IC50 (SaroL-1 [3]) [µM] | inhibition of hemolysis (in words) ([2]; 10 mM carbohydrate) | binding to SaroL-1 (in words) (SaroL-1 [4]) | IC50 ([2]; SaroL-1 217 nM pre-incubated with carbohydrate, read-out: IC50 of inhibition of hemolysis) [µM] |
| --- | --- | --- | --- | --- | --- | --- | --- | --- | --- | --- | --- | --- | --- | --- | --- | --- | --- | --- | --- | --- |
| OC[C@H]1O[C@H](O[C@H]2[C@@H](O)[C@@H](CO)OC(O)[C@@H]2O)[C@H](O)[C@@H](O)[C@H]1O (stereo partly drawn) [αGal1-3Gal, α-D-galactopyranosyl-(1-3)-D-galactose] | 1380 | – | – | – | – | – | – | – | – | – | – | – | – | – | – | – | – | – | – | – |
| CO[C@H]1O[C@H](CO)[C@H](O)[C@H](O)[C@H]1O [GalαOMe, α-methyl galactoside] | 2170 | – | – | – | – | – | – | – | – | – | – | – | – | – | – | – | – | – | – | – |
| CC(=O)N[C@H]1C(O)O[C@H](CO)[C@H](O)[C@@H]1O (stereo partly shown) [GalNAc, N-acetylgalactosamine] | 2760 | 3.76 | 7.37 | 8.89 | 4 | 2.33 | 6.61 | 6.57 | 9.48 | 14.5 | 27.3 | 42.5 | 64 | 83.1 | 98.8 | 100 | 4900 | – | – | – |
| OC[C@H]1O[C@H](OCC2O[C@@H](O)[C@H](O)[C@@H](O)[C@@H]2O)[C@H](O)[C@@H](O)[C@H]1O (stereo partly shown) [melibiose] | – | 0.665 | 2.27 | 3.73 | 7.43 | 7.01 | 9.7 | 15.2 | 22.7 | 36.1 | 54.5 | 76.3 | 91.8 | 100 | 100 | 100 | – | complete inhibition | – | – |
| OC[C@H]1O[C@@H](O[C@H]2[C@H](O)[C@@H](O)[C@H](O)O[C@@H]2CO)[C@H](O)[C@@H](O)[C@H]1O [Lactose, lactose] | – | – | – | – | – | – | – | – | – | – | – | – | – | – | – | – | – | – | very weak binding | 11900 |
